These results are taken from patent US10351525B2, “Beta lactamase inhibitors” (Oxford University Innovation Limited, priority 2014, dated 2019).

What all share (format): biochemical
For one test, the target named is T1, BcII (Bacillus cereus, UniProt P04190).
T1 construct: made in house; host or cells: Escherichia coli
As to the kind of experiment: MBL screening assay (IC50), BcII. The procedure: (§1) Recombinant forms of NDM-1, NDM-1 M67C, VIM-1, VIM-2, SPM-1, IMP-1 and BcII MBLs were produced in Escherichia coli as described in J. Med. Chem. 56, 6945-6953 (2013) and Makena et al Chem MechCHem 8, 1923-9 (2013). Purified VIM-2 protein was dialysed into fresh crystallization buffer (50 mM HEPES pH 7.5, 150 mM NaCl and […], concentrated to 7.5 mg/mL and used for crystallographic analyses.
(§2) Kinetic and inhibition analyses and UV-VIS studies^16 against bacterial MBLs were performed as described by Van Berkel et al in J. Med. Chem. 56, 6945-6953 (2013) and Makena et al Chem MechCHem 8, 1923-9 (2013).
(§3) The experiments were performed by using a NovaStar microplate reader (using path length correction) and were performed at r.t. (24-25° C.). All enzymes and substrates were dissolved in the assay buffer: 50 mM HEPES-NaOH buffer (pH 7.2) supplemented with 1 μg/mL BSA (to minimize the denaturation of the enzyme), 1 μM ZnSO4 and 0.01% Triton 100. Screening was carried out against a panel of MBLs including NDM-1, VIM-1, VIM-2, SPM-1 (Sao Paulo MBL-1) and IMP-1 and the non-clinically relevant model MBL Bacillus cereus (BcII).
(§4) The kinetic values determined were the means from at least three independent measurements. […] The IC50 values were determined from the plot of activity (steady state rate) versus inhibitor concentration using the same software. […]

In a further test the target is T2, VIM-2 (Escherichia coli, UniProt Q5U7L7).
T2 construct: made in house; host or cells: Escherichia coli
As to the kind of experiment: MBL screening assay (IC50), VIM-2. The procedure:
as §1, §2, §3
The kinetic values determined were the means from at least three independent measurements. At least six different concentrations of the substrate or inhibitor were used to determinate the kinetic parameters (KM, kcat and IC50). Determination of the steady state kinetic parameters for the hydrolysis of different substrates (KM and kcat) was performed by fitting the initial velocity data to the Michaelis-Menten equation using the software package Graph Prism 5.01. The IC50 values were determined from the plot of activity (steady state rate) versus inhibitor concentration using the same software.
IC50 values (concentration required to affect 50% inhibition of enzyme activity) were determined by preincubation of the appropriate amount of enzyme with the desired compound in the assay buffer for 10 min at r.t. prior to the initiation of the assay by the addition of the substrate. The compounds for inhibition study were prepared in 1 to 100 mM DMSO stock solutions.

A further test has as its target T3, hGlyoxylase II (Homo sapiens, UniProt Q16775).
T3 construct: purchased R&D Systems 5944-GO
Kind of test: hHAGH (human Glyoxylase II) assay. As to Inhibition verdict: key: N.I.—not inhibited. The procedure:
(§5) To investigate the selectivity of ML302/ML302F for bacterial MBLs, activity was tested against TEM-1 (a Class A SBL), PBP-5 (penicillin-binding protein 5 or dacA) and PBP-6 (penicillin-binding protein 6, or dacC) from E. coli, hHAT (human histone acetyltransferase) and hHDAC (human histone deacetylase). TEM-1, PBP-5 and -6 and hHAT are known to be inhibited by rhodanines. Selectively against hACE-2 (Angiotensin converting enzyme 2) and hHAGH (Hydroxyacylglutathione hydrolase, human Glyoxylase II) was also tested.
(§6) The inhibition analyses for human histone acetyltransferases (HAT), HDAC hHDAC (human histone deacetylase), hACE-2 (Angiotensin converting enzyme 2) and hHAGH (Hydroxyacylglutathione hydrolase, human Glyoxylase II) were performed using the commercially available HAT Assay Kit (Active Motif, catalogue No. 56100 (2009)), hHDAC (Active Motif, catalogue No. 56200 (2013)), hACE-2 (ACE-2 (R&D Systems) and hHAGH ((R&D Systems).
• Assay Buffer: 50 mM Tris, 250 mM NaCl, pH 7.5 • Recombinant Human Glyoxalase II (rhGlyoxalase II) (Catalog #5944-GO) • Substrate: S-Lactoylglutathione (Sigma, Catalog # L7140), 100 mM stock in deionized water • 5, 5′-dithiobis(2-nitrobenzoic acid) (DTNB) (Sigma, Catalog # D8130), 10 mM stock in DMSO • 96-well Clear Plate (Costar, Catalog #92592) • Plate Reader (Model: SpectraMax Plus by Molecular Devices) or equivalent Assay: 1. Dilute rhGlyoxalase II to 0.4 ng/μL in Assay Buffer. 2. Dilute Substrate to 2 mM in Assay Buffer with 400 IJM DTNB to form Substrate Mixture. 3. Load 50 μL of 0.4 ng/μL rhGlyoxalase II into a plate and start the reaction by loading 50 μL of Substrate Mixture. Include a Substrate Blank containing 50 μL of Assay Buffer and 50 μL of Substrate Mixture. 4. Read at 405 nm (absorbance) in kinetic mode for 5 minutes. 5. Calculate specific activity:
[formula] [formula] [formula] [formula] Note: the output of many spectrophotometers is in mOD. Final Assay Conditions Per Well: rhGlyoxalase II: […] S-Lactoylglutathione: 1 mM DTNB: 200 μM

A further test deals with T4, hHAT (Homo sapiens, UniProt Q09472).
T4 construct: purchased Active Motif 56100
T4 sequence (Q09472 1284-1673 limits assumed): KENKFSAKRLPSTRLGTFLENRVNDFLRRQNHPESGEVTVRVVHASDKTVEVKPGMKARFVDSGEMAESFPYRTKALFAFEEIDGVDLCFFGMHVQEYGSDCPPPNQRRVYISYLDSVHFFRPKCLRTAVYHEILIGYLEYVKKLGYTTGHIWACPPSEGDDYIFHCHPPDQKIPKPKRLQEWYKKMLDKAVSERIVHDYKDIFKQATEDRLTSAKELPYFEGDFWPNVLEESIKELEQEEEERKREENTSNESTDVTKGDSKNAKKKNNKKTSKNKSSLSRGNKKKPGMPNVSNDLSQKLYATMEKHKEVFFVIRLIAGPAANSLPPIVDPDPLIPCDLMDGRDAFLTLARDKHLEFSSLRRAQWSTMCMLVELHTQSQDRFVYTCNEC
Kind of test: Inhibition studies hHAT (HAT Assay Kit). As to Inhibition verdict: key: N.I.—not inhibited. The procedure: as §5, §6

The next test concerns the target SPM-1 (Pseudomonas aeruginosa, UniProt Q8G9Q0). As to the kind of experiment: MBL screening assay (IC50), SPM-1. The procedure:
as §1, §2, §3, §4

With `CN1CCN(NC(=O)CN2C(=O)C(=Cc3c(Cl)ccc(Cl)c3Cl)SC2=S)CC1` (mixture of isomers) [ML302, N-(4-Methylpiperazin-1-yl)-2-(4-oxo-2-thioxo-5-(2,3,6-trichlorobenzylidene)thiazolidin-3-yl)acetamide], the IC50 (as a rule, the concentration that inhibits the measured activity by half) was 500 ± 150 nM on BcII; 490 ± 180 nM at VIM-2 (IC50, VIM-2); 498 ± 18 nM on VIM-2 (IC50 value against VIM-2 obtained using this assay, VIM-2); 1320 ± 620 nM against SPM-1. In addition, the Inhibition verdict entry on hGlyoxylase II and on hHAT was “N.I” throughout. Also, the “RA (residual activity)” value at hGlyoxylase II is listed as 98 ± 3%; on hHAT it was 93 ± 15%.
With `O=C(O)C(S)=Cc1c(Cl)ccc(Cl)c1Cl` (racemic) [ML302F, 2-Mercapto-3-(2,3,6-trichlorophenyl)acrylic acid], the IC50 against BcII stood at 20 nM; against VIM-2 (IC50, VIM-2), 300 ± 90 nM; at SPM-1, 1760 ± 510 nM. The Inhibition verdict result on hGlyoxylase II and on hHAT was “N.I” in each case. Moreover, the “RA (residual activity)” value was 95 ± 6% at hGlyoxylase II and 85 ± 9% at hHAT.
